Assay results published in PubChem BioAssay (NCI).
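Cells were grown in 96-well plates and exposed to each compound for 48 hours at five concentrations; endpoints were interpolated linearly between bracketing concentrations, or set to the highest concentration if not reached. At the GI50, growth is halved. TGI: concentration producing complete growth inhibition.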

Columns and labels:
Experiment in all cases: NCI anticancer screen, dose series, 48 h
[1] = system: 786-0 renal
[2] = system: A498 renal
[3] = system: A549 NSCLC
[4] = system: ACHN renal
[5] = system: BT-549 breast
[6] = system: CAKI-1 renal
[7] = system: CCRF-CEM leukemia
[8] = system: COLO 205 colon
[9] = system: DU-145 prostate
[10] = system: EKVX NSCLC
[11] = system: HCC-2998 colon
[12] = system: HCT-116 colon
[13] = system: HCT-15 colon
[14] = system: HL-60(TB) leukemia
[15] = system: HOP-62 NSCLC
[16] = system: HOP-92 NSCLC
[17] = system: HS 578T breast
[18] = system: HT29 colon
[19] = system: IGROV1 ovarian
[20] = system: K-562 leukemia
[21] = system: KM12 colon
[22] = system: LOX IMVI melanoma
[23] = system: M14 melanoma
[24] = system: MALME-3M melanoma
[25] = system: MCF7 breast
[26] = system: MDA-MB-231 breast
[27] = system: MDA-MB-435
[28] = system: MDA-MB-468 breast
[29] = system: MOLT-4 leukemia
[30] = system: NCI-H226 lung
[31] = system: NCI-H23 lung
[32] = system: NCI-H460 lung
[33] = system: NCI-H522 lung
[34] = system: NCI/ADR-RES ovarian
[35] = system: OVCAR-3 ovarian
[36] = system: OVCAR-4 ovarian
[37] = system: OVCAR-5 ovarian
[38] = system: OVCAR-8 ovarian
[39] = system: PC-3 prostate
[40] = system: RPMI-8226 leukemia
[41] = system: RXF 393 renal
[42] = system: SF-268 CNS
[43] = system: SF-295 CNS
[44] = system: SF-539 CNS
[45] = system: SK-MEL-2 melanoma
[46] = system: SK-MEL-28 melanoma
[47] = system: SK-MEL-5 melanoma
[48] = system: SK-OV-3 ovarian
[49] = system: SN12C renal
[50] = system: SNB-19 CNS
[51] = system: SNB-75 CNS
[52] = system: SR leukemia
[53] = system: SW-620 colon
[54] = system: T-47D breast
[55] = system: TK-10 renal
[56] = system: U251 CNS
[57] = system: UACC-62 melanoma
[58] = system: UO-31 renal

Cc1ccc(Nc2nnc(-c3c[nH]c4ccccc34)o2)c(C)c1
GI50 [1]: 768 nM
TGI [1]: 11300 nM
GI50 [2]: 18200 nM
TGI [2]: 56600 nM
GI50 [3]: 868 nM
TGI [3]: > 100000 nM
GI50 [4]: 564 nM
TGI [4]: 30600 nM
GI50 [5]: 435 nM
TGI [5]: 19900 nM
GI50 [6]: 483 nM
TGI [6]: 38900 nM
GI50 [7]: 311 nM
TGI [7]: > 35100 nM
GI50 [8]: 447 nM
TGI [8]: 2950 nM
GI50 [9]: 664 nM
TGI [9]: > 45300 nM
GI50 [10]: 455 nM
TGI [10]: > 73100 nM
GI50 [11]: 625 nM
TGI [11]: 4560 nM
GI50 [12]: 645 nM
TGI [12]: 29200 nM
GI50 [13]: 170 nM
TGI [13]: 16700 nM
GI50 [14]: 274 nM
TGI [14]: 17800 nM
GI50 [15]: 475 nM
TGI [15]: 24300 nM
GI50 [16]: 8530 nM
TGI [16]: 43600 nM
GI50 [17]: 333 nM
TGI [17]: 9170 nM
GI50 [18]: 326 nM
TGI [18]: 2780 nM
GI50 [19]: 569 nM
TGI [19]: 20400 nM
GI50 [20]: 80.1 nM
TGI [20]: > 100000 nM
GI50 [21]: 435 nM
TGI [21]: 14500 nM
GI50 [22]: 478 nM
TGI [22]: 7430 nM
GI50 [23]: 324 nM
TGI [23]: 16000 nM
GI50 [24]: 323 nM
TGI [24]: 18800 nM
GI50 [25]: 283 nM
TGI [25]: 13200 nM
GI50 [26]: 620 nM
TGI [26]: 15900 nM
GI50 [27]: 46 nM
TGI [27]: 250 nM
GI50 [28]: 300 nM
TGI [28]: 1030 nM
GI50 [29]: 478 nM
TGI [29]: 46200 nM
GI50 [30]: 1450 nM
TGI [30]: > 100000 nM
GI50 [31]: 445 nM
TGI [31]: 12700 nM
GI50 [32]: 443 nM
TGI [32]: 13600 nM
GI50 [33]: 163 nM
TGI [33]: 1210 nM
GI50 [34]: 109 nM
TGI [34]: 484 nM
GI50 [35]: 307 nM
TGI [35]: 3530 nM
GI50 [36]: 14900 nM
TGI [36]: > 100000 nM
GI50 [37]: 756 nM
TGI [37]: 24200 nM
GI50 [38]: 463 nM
TGI [38]: 9100 nM
GI50 [39]: 583 nM
TGI [39]: > 100000 nM
GI50 [40]: 424 nM
TGI [40]: > 39100 nM
GI50 [41]: 375 nM
TGI [41]: 7440 nM
GI50 [42]: 714 nM
TGI [42]: 30900 nM
GI50 [43]: 236 nM
TGI [43]: 3240 nM
GI50 [44]: 286 nM
TGI [44]: 932 nM
GI50 [45]: 302 nM
TGI [45]: 13300 nM
GI50 [46]: 639 nM
TGI [46]: 31800 nM
GI50 [47]: 353 nM
TGI [47]: 15000 nM
GI50 [48]: 502 nM
TGI [48]: 23800 nM
GI50 [49]: 522 nM
TGI [49]: 16500 nM
GI50 [50]: 512 nM
TGI [50]: 43700 nM
GI50 [51]: 255 nM
TGI [51]: 968 nM
GI50 [52]: 141 nM
TGI [52]: > 100000 nM
GI50 [53]: 325 nM
TGI [53]: > 100000 nM
GI50 [54]: 325 nM
TGI [54]: > 100000 nM
GI50 [55]: 4030 nM
TGI [55]: > 100000 nM
GI50 [56]: 394 nM
TGI [56]: 15400 nM
GI50 [57]: 277 nM
TGI [57]: 12200 nM
GI50 [58]: 530 nM
TGI [58]: 57000 nM
